The source of these data is publication PMC4543647, “Structural and Functional Analysis of BipA, a Regulator of Virulence in Enteropathogenic Escherichia coli” (The Journal of Biological Chemistry, 2015).

In experiment [1] the target is T1, BipA (TypA or YihK) (Escherichia coli, UniProt P0DTT0). In words: isothermal titration calorimetry; crystal structure […] A. The class given is binding. The conditions noted are these: read-out: Ka (converted).
For experiment [2], the target named is T1, BipA (TypA or YihK). The description is as above. The class given is binding.

Structures are written as SMILES. Where two headings read alike, the source gives them in different places.

T1 sequence (P0DTT0 whole entry): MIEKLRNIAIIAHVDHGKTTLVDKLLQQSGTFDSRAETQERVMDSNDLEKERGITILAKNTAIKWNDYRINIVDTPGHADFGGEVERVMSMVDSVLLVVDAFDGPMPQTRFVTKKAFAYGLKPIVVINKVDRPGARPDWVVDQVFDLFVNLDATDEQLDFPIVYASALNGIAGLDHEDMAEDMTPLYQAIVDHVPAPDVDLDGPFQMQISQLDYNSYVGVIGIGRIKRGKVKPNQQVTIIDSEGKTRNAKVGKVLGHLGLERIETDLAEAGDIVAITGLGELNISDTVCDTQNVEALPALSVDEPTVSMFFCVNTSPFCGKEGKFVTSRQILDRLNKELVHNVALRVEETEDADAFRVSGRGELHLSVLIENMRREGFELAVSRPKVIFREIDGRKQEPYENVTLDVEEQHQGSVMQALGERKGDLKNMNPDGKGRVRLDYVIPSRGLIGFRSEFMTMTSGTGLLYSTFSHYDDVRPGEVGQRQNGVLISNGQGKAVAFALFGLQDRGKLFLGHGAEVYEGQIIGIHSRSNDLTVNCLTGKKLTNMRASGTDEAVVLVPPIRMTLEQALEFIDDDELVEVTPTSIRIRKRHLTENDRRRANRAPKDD

Regarding `Nc1nc2c(ncn2[C@@H]2O[C@H](COP(=O)(O)OP(=O)(O)O)[C@@H](O)[C@H]2O)c(=O)[nH]1` [GDP], at BipA (TypA or YihK) [1], the Kd is 14.5 µM. As to `Nc1nc2c(ncn2[C@@H]2O[C@H](COP(=O)(O)OP(=O)(O)O)[C@@H](OP(=O)(O)OP(=O)(O)O)[C@H]2O)c(=O)[nH]1` [ppGpp, guanosine-3′, 5′-bis pyrophosphate], the Kd on BipA (TypA or YihK) [2] is 41.7 µM.
